Measurements from article PMC5223195, “Novel long-chain compounds with both immunomodulatory and MenA inhibitory activities against Staphylococcus aureus and its biofilm” (Scientific Reports, 2017).
Converted amounts (≈) assume the structure as drawn. “Also recorded” adds a separate entry of the source.

Experiments:
[1] = tested on: Mycobacterium abscessus; experiment: MIC against Mycobacterium abscessus; format: cell-based; conditions: Mycobacteroides abscessus, 7H9 broth, 7–8 days
Experimental: (§1) 96-well plates were seeded with 5 × 10^5 CFU/mL in a volume of 100 μL of tryptic soy broth (TSB) per well for Staphylococcus aureus assays. Compounds were dissolved in DMSO and serially diluted as 1:2 dilutions to give the final concentration ranging from 0.25 to 128 μg/mL per well. […] Plates were incubated at 37 °C for 18–20 hours and MIC was determined by reading OD625. For M.avium and M.abscessus, 7H9 broth media was used for determination of MICs. The final concentration was 5 × 10^5 CFU/mL in each well. The plate was incubated at 37 °C for 7–8 days and MICs were determined using a Tecan microplate reader (OD625) and resazurin reduction assay.

[2] = tested on: TNF-α; experiment: TNF-α release from THP-1 macrophages; format: cell-based, human; conditions: concentration equal to MIC, 24 h, 37 °C
Experimental: (§2) THP-1 cells were differentiated into macrophages by treatment with PMA (7.5 ng/mL). Levels of the human cytokines (GM-CSF, IFN-γ, IL-1β, IL-2, IL-4, IL-5, IL-6, IL-8, IL-10, TNF-α) released from THP-1 macrophages were determined using a multiplex kit from Life Technologies according to the manufacturer’s instructions. In brief, the 96 well filter plate was pre-wetted, and then 25 μL of the diluted bead suspension was added to each well and washed twice. 100 μL of samples and standards were added to each well. The plate was incubated at room temperature for 2 h on a shaker. Following washing, biotinylated detection antibody was added and incubated for 1 h. After washing, streptavidin-RPE was added to each well and incubated for 0.5 h. The plate was again washed, resuspended in 100 μL of the washing buffer, and read on the Luminex xMAP™ system (Bio-Rad, AtheNA multi-Lyte™, USA). All samples were run in triplicate and standards were run in duplicate.

[3] = tested on: MRSA USA800; experiment: MIC against MRSA USA800; format: cell-based, Staphylococcus aureus; conditions: Staphylococcus aureus; TSB, 37 °C, 18–20 hours; read-out: MIC, Staphylococcus aureus isolate USA800
Experimental: as §1

[4] = tested on: MRSA USA500; experiment: MIC against MRSA USA500; format: cell-based, Staphylococcus aureus; conditions: Staphylococcus aureus; TSB, 37 °C, 18–20 hours; read-out: MIC, Staphylococcus aureus isolate USA500
Experimental: as §1

[5] = tested on: MRSA USA400; experiment: MIC against MRSA USA400; format: cell-based, Staphylococcus aureus; conditions: Staphylococcus aureus; TSB, 37 °C, 18–20 hours; read-out: MIC, Staphylococcus aureus isolate USA400
Experimental: as §1

[6] = tested on: MRSA (USA200); experiment: Colony morphology / small colony variant formation on TSA; format: cell-based, Staphylococcus aureus; conditions: USA200 on TSA, 37 °C, up to 96 h (3a 4–16 μg/mL), 72 h (7c, rifampin)
Experimental: MRSA was streaked and then incubated on tryptic soy agar (TSA) containing 0, 2, 4, 8 or 16 μg/mL of inhibitor 3a or 4 μg/mL of 7C or 0.025 μg/mL of rifampin at 37 °C for 96 h. MK-4 (100 μg/mL) was supplemented in TSA containing 8 μg/mL of 3a for the rescue experiment.

[7] = tested on: MRSA strains; experiment: MIC against MRSA strains (summary); format: cell-based, Staphylococcus aureus; conditions: range over MRSA strains
Experimental: as §1

[8] = tested on: IL-6; experiment: IL-6 release from THP-1 macrophages; format: cell-based, human; conditions: concentration equal to MIC, 24 h, 37 °C
Experimental: as §2

[9] = tested on: MRSA USA700; experiment: MIC against MRSA USA700; format: cell-based, Staphylococcus aureus; conditions: Staphylococcus aureus; TSB, 37 °C, 18–20 hours; read-out: MIC, Staphylococcus aureus isolate USA700
Experimental: as §1

[10] = tested on: MRSA USA200; experiment: MIC against MRSA USA200; format: cell-based, Staphylococcus aureus; conditions: Staphylococcus aureus; TSB, 37 °C, 18–20 hours; read-out: MIC, Staphylococcus aureus isolate USA200
Experimental: as §1

[11] = tested on: Mycobacterium avium; experiment: MIC against Mycobacterium avium; format: cell-based; conditions: 7H9 broth, 7–8 days
Experimental: as §1

[12] = tested on: MRSA USA100; experiment: MIC against MRSA USA100; format: cell-based, Staphylococcus aureus; conditions: Staphylococcus aureus; TSB, 37 °C, 18–20 hours; read-out: MIC, Staphylococcus aureus isolate USA100
Experimental: as §1

[13] = tested on: Methicillin susceptible Staphylococcus aureus; experiment: MIC against MSSA; format: cell-based; conditions: MSSA
Experimental: as §1

[14] = tested on: IL-1β; experiment: IL-1β release from THP-1 macrophages; format: cell-based, human; conditions: concentration equal to MIC, 24 h, 37 °C
Experimental: as §2

[15] = tested on: MRSA (USA 700); experiment: Activity against extracellular MRSA in the presence of human MDMs; format: cell-based, Staphylococcus aureus; conditions: extracellular MRSA USA700, MIC and MIC/4, 24 h
Experimental: Human monocyte-derived macrophages (MDM) were cultured at a concentration of 1 × 10^6 cells/mL/well in a 24 well plate. MRSA (USA 700) was cultured in TSB (10 mL) until OD625 reached 0.4~0.5 and then centrifuged at 14,000 rpm for 10 min. The pellets were resuspended in 10 mL of DMEM supplemented with 10% human serum (no antibiotics). The bacteria medium was diluted with DMEM containing an inhibitor to obtain 1 × 10^6 CFU/mL and added to human MDMs (MOI = 1) in a 24-well plate. After 24 hour infection at 37 °C, the supernatants were serially diluted for CFU determination (TSA plates).

[16] = tested on: MRSA USA300; experiment: MIC against MRSA USA300; format: cell-based, Staphylococcus aureus; conditions: Staphylococcus aureus; TSB, 37 °C, 18–20 hours; read-out: MIC, Staphylococcus aureus isolate USA300
Experimental: as §1

[17] = tested on: Pseudomonas aeruginosa; experiment: MIC against Pseudomonas aeruginosa; format: cell-based; conditions: read-out: MIC, PA
[18] = tested on: Enterococcus faecalis; experiment: MIC against Enterococcus faecalis; format: cell-based; conditions: read-out: MIC, EF
[19] = tested on: Gram-positive bacteria; experiment: MIC against Gram-positive bacteria (summary); format: cell-based; conditions: range over all tested Gram-positive bacteria
Experimental: as §1

[20] = biological target: MenA; conditions: previously reported; cited from earlier work

| Structure (SMILES) | MIC [5] | MIC [9] | MIC [13] | MIC [16] | MIC [17] | MIC [18] | M.tb IC50 (inhibition of both M.tb and MenA enzyme activity) [20] | further results |
| --- | --- | --- | --- | --- | --- | --- | --- | --- |
| Fc1ccc(CCNCCCOc2ccc3ccc(OCCCNCCc4ccc(F)cc4)cc3c2)cc1 [7c] | 1 µg/mL (≈ 1.93 µM) | 2 µg/mL (≈ 3.86 µM) | 2 µg/mL (≈ 3.86 µM) | 3 µg/mL (≈ 5.78 µM) | > 128 µg/mL | 1 µg/mL (≈ 1.93 µM) |  | MIC [1]: 6 µg/mL (≈ 11.6 µM); TNF-α released from THP-1 macrophages [2]: decreased; MIC [3]: 4 µg/mL (≈ 7.71 µM); MIC [4]: 8 µg/mL (≈ 15.4 µM); induction of small colony variants (SCV) [6]: did not induce SCV; MICs against MRSA strains (range) [7]: 1 to 8 µg/mL; IL-6 released from THP-1 macrophages [8]: decreased; also recorded: significantly reduced; MIC [10]: 2 µg/mL (≈ 3.86 µM); MIC [11]: 3 µg/mL (≈ 5.78 µM); MIC [12]: 3 µg/mL (≈ 5.78 µM); IL-1β released from THP-1 macrophages [14]: stimulated the release; increase of antibacterial activity compared to activities with MDMs [15]: 1.5 – 3 fold; increase of antibacterial activity compared to activities without MDMs [15]: 6–12 fold; MIC values against all Gram-positive bacteria (range) [19]: 0.5 to 16 µg/mL |
| C=CCN(C)CCCCCCCCOc1ccc2ccc(OC)cc2c1 [compound 1] | 16 µg/mL (≈ 45 µM) | 16 µg/mL (≈ 45 µM) | 32 µg/mL (≈ 90 µM) | 16 µg/mL (≈ 45 µM) | 128 µg/mL (≈ 360 µM) | 8 µg/mL (≈ 22.5 µM) | 6 µg/mL |  |
| COc1ccc2ccc(OCCCCCCCCN3CCCCC3)cc2c1 [compound 2] | 16 µg/mL (≈ 43.3 µM) | 16 µg/mL (≈ 43.3 µM) | 16 µg/mL (≈ 43.3 µM) | 16 µg/mL (≈ 43.3 µM) | > 64 µg/mL | 16 µg/mL (≈ 43.3 µM) | 5 µg/mL |  |
